# Several values for one entry are separate records, joined by “and”; a condition that tells them apart may be missing. Identical values can stand only once.
# Legend:
# [1] = molecular target: T1, human central cannabinoid (CB 1) receptor (Homo sapiens, UniProt P21554); experiment: CB1 receptor binding assay ([3H]CP55940, HEK293(EBNA) membranes); details: [3H]CP55940 0.6 nM, pH 7.4, 30 °C, 60 min
# T1 construct: expressed in transfected cells; host or cells: HEK293(EBNA)
# Experimental: The compound of Formula I can be tested using the following assays to determine their affinity for binding to the cannabinoid receptors.
# Stable cell lines were constructed expressing either the human peripheral cannabinoid (CB2) receptor or the human central cannabinoid (CB 1) receptor as described previously (Gerard. et al., Molecular cloning of a human cannabinoid receptor which is also expressed in testis. Biochem. J. (279)129-134, 1991.). […]
# CB2 receptor binding assays were performed in 0.2 ml of 10 mM HEPES/KOH (pH 7.4) containing 1 mM EDTA, 0.3 mg/ml human serum albumin (HSA), 1 mM MgCl2, and 2.4 nM [^3 H]Win 55212-2 (Dupont-NEN Canada, Mississauga, ON). […] The residual [^3 H]Win 55212-2 or [^3 H]CP55940(-) bound to the filters was determined by liquid scintillation counting following a 6h equilibration in 5 ml Biofluor O) (Dupont-NEN Canada, Mississauga, ON) scintillation cocktail (efficiency for tritium was approximately 55%). […]
# [2] = molecular target: T2, human peripheral cannabinoid (CB2) receptor (Homo sapiens, UniProt P34972); experiment: CB2 functional assay: cAMP assay in CHO-K1 cells expressing the CB2 receptor; type: cell-based; details: forskolin, 37 °C, 15 min
# T2 construct: expressed in transfected cells; host or cells: CHO-K1
# T2 sequence (P34972 whole entry): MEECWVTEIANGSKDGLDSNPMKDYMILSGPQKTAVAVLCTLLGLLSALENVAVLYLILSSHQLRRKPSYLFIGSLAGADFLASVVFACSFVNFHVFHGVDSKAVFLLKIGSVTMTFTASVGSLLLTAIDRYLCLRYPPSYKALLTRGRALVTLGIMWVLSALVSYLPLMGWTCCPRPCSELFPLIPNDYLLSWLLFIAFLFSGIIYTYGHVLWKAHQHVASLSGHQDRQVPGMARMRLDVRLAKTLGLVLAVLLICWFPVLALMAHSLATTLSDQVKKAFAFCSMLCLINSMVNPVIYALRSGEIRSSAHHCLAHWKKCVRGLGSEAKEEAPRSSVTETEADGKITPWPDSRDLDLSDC
# Experimental: Stable cell lines were constructed expressing either the human peripheral cannabinoid (CB2) receptor or the human central cannabinoid (CB 1) receptor as described previously (Gerard. et al., Molecular cloning of a human cannabinoid receptor which is also expressed in testis. Biochem. J. (279)129-134, 1991.). Membranes were prepared from CHO-K1 cells stably expressing the CB2 receptor and HEK293(EBNA) cells stably expressing the CB 1 receptor by differential centrifugation (1000×g for 10 min, then 100,000×g for 30 min, both at 4° C.) following lysis of the cells by nitrogen cavitation at 800 psi for 15 min on ice, as previously described (Frey, E.A., et al., Characterization of the leukotriene D4 receptor in dimethylsulphoxide-dufferentiated U937 cells: comparison with the leukotriene D4 receptor in human-lung and guinea-pig lung. Eur. J. Pharma. (244) 239-250, 1993.). […]
# CB2--CHO-K1 cells were seeded at 10^6 cells per 175 cm^2 T-flask in MEM alpha growth medium (MEM alpha medium containing 25 mM HEPES/KOH (pH 7.4), 10% heat inactivated fetal bovine serum, 20 units/ml penicillin G, 20 mg/ml streptomycin sulfate and 500 mg/ml G418) (GIBCO-BRL Canada, Burlington, ON). […] Cell viability was always >96% as determined by trypan blue exclusion. […]
# [3] = molecular target: T2, human peripheral cannabinoid (CB2) receptor; experiment: CB2 receptor binding assay ([3H]Win 55212-2, CHO-K1 membranes); details: [3H]Win 55212-2 2.4 nM, pH 7.4, 30 °C, 40 min
# T1 sequence (P21554 whole entry): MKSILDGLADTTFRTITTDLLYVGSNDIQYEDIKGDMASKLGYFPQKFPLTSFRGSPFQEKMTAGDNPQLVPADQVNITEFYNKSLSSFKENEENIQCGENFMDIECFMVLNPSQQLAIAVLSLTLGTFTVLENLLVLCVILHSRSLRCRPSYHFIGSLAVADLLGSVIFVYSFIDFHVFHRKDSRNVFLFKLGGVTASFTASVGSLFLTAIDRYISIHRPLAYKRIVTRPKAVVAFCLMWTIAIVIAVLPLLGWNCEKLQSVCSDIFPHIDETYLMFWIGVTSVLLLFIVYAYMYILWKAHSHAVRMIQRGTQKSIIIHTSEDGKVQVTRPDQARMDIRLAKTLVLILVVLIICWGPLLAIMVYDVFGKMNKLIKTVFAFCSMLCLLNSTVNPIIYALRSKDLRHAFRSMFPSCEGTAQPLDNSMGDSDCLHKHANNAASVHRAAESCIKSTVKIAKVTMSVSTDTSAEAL
SMILES,IC50 [1],EC50 [2],Ki [3]
"COc1ccc2c(c1)N(C)C(C)(C)[C@@H]1CC[C@@H](C)C[C@@H]21 [Example 1, (6aR,9R,10aR)-3-Methoxy-5,6,6,9-tetramethyl-5,6,6a,7,8,9,10,10a-octahydro-phenanthridine]",22.3 µM and 27.4 µM,68 nM and 149 nM,73 nM and 55 nM
"CCCCCCC(C)(C)c1cc(O)c2c(c1)OC(C)(C)[C@@H]1CC=C(CO)C[C@@H]21 [HU-210, reference compound]",0.0025 ± 0.0002 µM,,

# — patent US5605906A, “Cannabinoid receptor agonists” (Merck Frosst Canada, Inc., priority 1995, dated 1997)
